Test results taken from patent publication US11702419B2, “Heterocyclic compound and use thereof” (Takeda Pharmaceutical Company Limited, priority 2018, dated 2023).

Columns and labels:
[1] = rodents; number of occurrence and depth; cited from earlier work
[2] = continuous intravenous administration; cited from earlier work
hERG channel = target: T1, hERG channel (Homo sapiens, UniProt Q12809); assay: hERG manual patch-clamp assay; type: cell-based; details: 10 μmol/L test solution; hERG peak tail current 3 to 5 min after application, HEK293 cells
T1 construct: Medicine
T1 sequence (Q12809 whole entry): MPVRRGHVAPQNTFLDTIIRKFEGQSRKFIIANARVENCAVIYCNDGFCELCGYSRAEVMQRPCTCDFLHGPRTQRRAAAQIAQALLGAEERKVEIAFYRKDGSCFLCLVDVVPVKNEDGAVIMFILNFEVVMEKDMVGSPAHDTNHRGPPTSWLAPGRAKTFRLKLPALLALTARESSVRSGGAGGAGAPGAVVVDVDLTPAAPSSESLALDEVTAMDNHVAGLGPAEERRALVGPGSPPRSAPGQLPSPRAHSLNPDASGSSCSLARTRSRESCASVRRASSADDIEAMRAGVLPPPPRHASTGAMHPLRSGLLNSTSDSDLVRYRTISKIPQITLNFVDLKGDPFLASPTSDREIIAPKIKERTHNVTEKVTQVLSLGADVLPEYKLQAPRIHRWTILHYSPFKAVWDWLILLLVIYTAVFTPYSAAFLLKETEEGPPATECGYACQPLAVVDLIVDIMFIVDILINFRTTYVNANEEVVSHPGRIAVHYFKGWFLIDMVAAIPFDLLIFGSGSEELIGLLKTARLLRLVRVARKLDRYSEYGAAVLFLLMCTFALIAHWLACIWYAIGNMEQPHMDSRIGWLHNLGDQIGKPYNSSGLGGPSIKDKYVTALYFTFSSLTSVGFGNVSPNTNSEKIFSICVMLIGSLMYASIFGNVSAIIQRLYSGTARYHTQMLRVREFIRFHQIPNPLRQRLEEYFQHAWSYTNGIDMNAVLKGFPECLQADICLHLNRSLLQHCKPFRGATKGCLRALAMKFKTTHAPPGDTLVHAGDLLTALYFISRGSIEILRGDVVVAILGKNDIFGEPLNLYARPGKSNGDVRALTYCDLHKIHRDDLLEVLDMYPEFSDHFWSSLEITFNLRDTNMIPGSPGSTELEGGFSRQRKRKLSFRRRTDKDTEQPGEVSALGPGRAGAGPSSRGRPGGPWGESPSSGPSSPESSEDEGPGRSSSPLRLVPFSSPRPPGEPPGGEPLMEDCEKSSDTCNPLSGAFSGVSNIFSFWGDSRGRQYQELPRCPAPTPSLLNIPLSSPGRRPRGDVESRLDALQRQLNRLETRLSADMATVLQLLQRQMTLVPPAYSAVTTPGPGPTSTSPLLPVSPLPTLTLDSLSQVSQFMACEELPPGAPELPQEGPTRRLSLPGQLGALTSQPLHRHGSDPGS
Experimental: hERG Manual Patch-Clamp Assay
In order to confirm “hERG channel inhibitory activity” which the compound of the present invention has, the hERG channel inhibitory activity was evaluated using human Ether-a-go-go-Related Gene (hERG)-expressing human embryonic kidney 293 (HEK293) cells.
hERG-stably expressing HEK293 cells were purchased from University of Wisconsin-Madison Dept. Medicine. The cells were cultured in a medium prepared by adding 10% FBS (fetal bovine serum, Life Technologies Corporation), sodium pyruvate (1 mmol/L; Life Technologies Corporation), MEM Non-Essential Amino Acid (1×; Life Technologies Corporation), 100 units/mL penicillin, 100 μg/mL streptomycin (Life Technologies Corporation) and 400 μg/mL G 418 (Geneticin, Sigma-Aldrich Co. LLC.) to Minimum Essential Medium (Sigma-Aldrich Co. LLC.) at 37° C., 5% CO2. The cultured cells were detached, suspended in a medium, and seeded on a cover glass, cultured, and used in a patch-clamp assay. […]
The hERG current passing through whole cell membranes under voltage-clamp was recorded by whole-cell patch-clamp method. […] During measurement, the extracellular fluid temperature in the chamber was set at 20 to 25° C., and the hERG current was measured using patch-clamp amplifier (Axopatch-200B, Molecular Devices, LLC). The obtained electrical signal was recorded on a computer via patch-clamp record and analysis software (pCLAMP 10, Molecular Devices, LLC). The absolute value of the hERG current value (peak tail current) was calculated based on the current value when depolarizing pulse at −50 mV, 110 msec was given, and the change (inhibitory rate) in the hERG current value (peak tail current) 3 to 5 min after the application of the 10 μmol/L test solution relative to before the application was calculated.

[3] = system: NMDA receptor containing the NR2B subunit (hippocampus); assay: [3H]MK-801 binding test in vivo; set-up: species or system Sprague Dawley rats; details: [3H]MK-801 binding inhibitory rate, rat hippocampus
Experimental: [^3H]MK-801 Binding Test In Vivo
In order to confirm “functional antagonistic action on an NMDA receptor containing the NR2B subunit in vivo” which the compound of the present invention has, binding test was performed using tritium-labeled form of MK-801 ((5R,10S)-5-methyl-10,11-dihydro-5H-5,10-epiminodibenzo[a,d][7]annulene) ([^3H]MK-801), which is a compound capable of binding to the opening site of the NMDA receptor.
The example compound (3 mg/kg/2 mL, 0.5% MC water) or vehicle ([…], 0.5% MC water) was orally administered (p.o.) to Sprague Dawley rats (body weight 180-260 g). After a certain time (around after time-to maximum blood concentration), [^3H]MK-801 (20 μCi/kg/mL, Muromachi Kikai) was intravenously administered. After 10 min, the rats were euthanized by decapitation, and subjected to craniotomy, and the hippocampus was collected. The collected hippocampus was homogenized in 30 volumes (30 mL per 1 g tissue) ice-cooled 20 mM Hepes (pH7.5, Hampton Research) using a homogenizer (T10 basic Ultra-Turrax) for 10 sec. […] The filter was washed four times with ice-cooled saline (5 mL, Otsuka Pharmaceutical), put into a scintillation vial, and then 10 mL of liquid scintillator A (FUJIFILM Wako Pure Chemical Corporation) was added thereto, and the residual radioactivity was counted using liquid scintillation counter (ALOKA LSC-6100). Separately, the residual radioactivity in 100 μL of the homogenate before the filtration was counted in the same way. The value of [the residual radioactivity in the filter/the residual radioactivity in the 100 μL of the homogenate] was calculated as a [^3H]MK-801 binding rate to the NMDA receptor expressing in each individual hippocampus tissue. […] The difference between the percentage of [^3H]MK-801 binding rate in the group orally administered with the example compound and that in the vehicle control group (100%) was analyzed as [^3H]MK-801 binding inhibitory rate by the example compound.

[4] = target: T2, NMDA receptor composed of four subunits consisting of two sets of heterodimers of NR1 and NR2B (human GRIN1 and GRIN2B-expressing HEK293 cells) (Homo sapiens, UniProt Q13224); assay: NR2B Ca2+ influx assay; type: cell-based; details: 10 μM compound, glutamic acid/glycine-induced Ca2+ influx, FLIPR, read-out: inhibitory rate (10 μM compound concentration)
T2 construct: host or cells: HEK293 (tetracycline-inducible expression)
T2 sequence (Q13224 27-1484, other chains not shown): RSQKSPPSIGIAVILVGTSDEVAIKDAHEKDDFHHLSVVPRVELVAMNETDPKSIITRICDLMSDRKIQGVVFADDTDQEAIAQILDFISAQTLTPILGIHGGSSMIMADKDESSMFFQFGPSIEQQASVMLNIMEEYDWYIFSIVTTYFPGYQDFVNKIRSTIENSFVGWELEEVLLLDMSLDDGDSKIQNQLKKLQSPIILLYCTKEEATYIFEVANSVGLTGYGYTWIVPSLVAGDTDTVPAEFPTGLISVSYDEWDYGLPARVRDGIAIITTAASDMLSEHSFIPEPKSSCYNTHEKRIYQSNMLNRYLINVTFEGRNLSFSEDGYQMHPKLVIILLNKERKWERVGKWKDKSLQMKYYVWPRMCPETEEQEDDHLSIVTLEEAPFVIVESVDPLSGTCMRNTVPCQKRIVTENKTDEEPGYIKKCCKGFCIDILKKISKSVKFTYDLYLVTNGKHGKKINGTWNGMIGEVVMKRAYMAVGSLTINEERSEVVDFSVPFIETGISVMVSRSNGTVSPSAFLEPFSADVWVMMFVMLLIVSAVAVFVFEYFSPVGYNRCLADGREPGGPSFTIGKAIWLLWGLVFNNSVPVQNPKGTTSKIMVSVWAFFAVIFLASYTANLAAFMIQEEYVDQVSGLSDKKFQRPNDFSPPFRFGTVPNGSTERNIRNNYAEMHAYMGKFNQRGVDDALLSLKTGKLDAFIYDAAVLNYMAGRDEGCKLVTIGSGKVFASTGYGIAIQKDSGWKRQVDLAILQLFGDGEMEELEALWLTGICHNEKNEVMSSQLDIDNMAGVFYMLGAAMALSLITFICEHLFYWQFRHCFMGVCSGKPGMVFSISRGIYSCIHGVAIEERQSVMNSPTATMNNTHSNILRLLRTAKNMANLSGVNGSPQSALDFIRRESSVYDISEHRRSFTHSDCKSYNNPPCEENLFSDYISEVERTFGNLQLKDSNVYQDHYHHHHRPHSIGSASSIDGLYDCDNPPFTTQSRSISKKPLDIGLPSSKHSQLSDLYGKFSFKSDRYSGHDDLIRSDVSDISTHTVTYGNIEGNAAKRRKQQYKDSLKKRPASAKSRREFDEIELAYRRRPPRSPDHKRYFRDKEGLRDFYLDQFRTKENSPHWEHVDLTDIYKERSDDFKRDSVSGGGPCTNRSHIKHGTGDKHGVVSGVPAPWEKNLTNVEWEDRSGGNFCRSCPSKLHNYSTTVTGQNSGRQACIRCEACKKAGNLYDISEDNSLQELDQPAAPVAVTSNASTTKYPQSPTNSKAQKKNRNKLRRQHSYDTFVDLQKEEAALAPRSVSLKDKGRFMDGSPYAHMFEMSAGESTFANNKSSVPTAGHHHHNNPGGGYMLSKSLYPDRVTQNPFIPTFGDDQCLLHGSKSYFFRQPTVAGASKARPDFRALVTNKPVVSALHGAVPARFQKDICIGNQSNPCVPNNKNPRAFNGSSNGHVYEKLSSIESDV
Summary of the method: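 HEK293 cells expressing human GRIN1/GRIN2B were induced with tetracycline (diluted to 2 µg/mL) for 2 h, then Fluo-4AM loaded (2.5 µM) in pH 7.2 buffer with 1.8 mM CaCl2. Compound at 10 µM final was preincubated 15 min at room temperature, then challenged with buffer containing 30 µM glutamate/30 µM glycine. FLIPR fluorescence was read every 3 s for 5 min, with % inhibition from cumulative signal and agonist-free wells set as 100%.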

[5] = in vivo; cited from earlier work
[6] = single intravenous administration; major depression and bipolar disorder; cited from earlier work
[7] = in vivo; cited from earlier work; remark: listed apart in the source

| Compound | inhibitory rate (10 μM compound concentration) (hERG channel) | inhibitory rate (3 mg/kg, p.o.) [3] [%] | inhibition at 10 µM [4] [%] | other results |
| --- | --- | --- | --- | --- |
| C[C@@H]([C@@H](O)c1ccc(O)cc1)N1CCC(O)(c2ccccc2)CC1 [CP-101,606] |  |  |  | effect on cortical spreading depression [1]: suppress the number of occurrence and the depth of cortical spreading depression; effect on treatment resistant-depression symptom [2]: significantly improves treatment resistant-depression symptom |
| O=C(NCc1cnn2ncccc12)c1cnc(OC(F)F)c(F)c1 [Example 6, 6-(difluoromethoxy)-5-fluoro-N-(pyrazolo[1,5-b]pyridazin-3-ylmethyl)nicotinamide] | 16.5 | 33 | 97 |  |
| O=C(NCc1nnn2ccccc12)c1ccc(OC(F)(F)F)c(F)c1 [Example 13, 3-fluoro-N-([1,2,3]triazolo[1,5-a]pyridin-3-ylmethyl)-4-(trifluoromethoxy)benzamide] | 33.2 | 23 | 96 |  |
| Cn1ccn2ncc(CNC(=O)c3cnc(OC(F)F)c(F)c3)c12 [Example 58, 6-(difluoromethoxy)-5-fluoro-N-((1-methyl-1H-imidazo[1,2-b]pyrazol-7-yl)methyl)nicotinamide] | 13.6 | 27 | 97 |  |
| C[C@@H](CN1CCC(Cc2ccccc2)CC1)[C@@H](O)c1ccc(O)cc1 [Ro25-6981] |  |  |  | effect on cortical spreading depression [1]: suppress the number of occurrence and the depth of cortical spreading depression |
| CC(C(O)c1ccc(O)cc1)N1CCC(Cc2ccccc2)CC1 (stereo not drawn) [ifenprodil] |  |  |  | effect on pain threshold [5]: increase in pain threshold |
| CNC1(c2ccccc2Cl)CCCCC1=O (stereo not drawn) [ketamine] |  |  |  | effect on depression symptom [6]: improves depression symptom accompanying major depression and bipolar disorder rapidly and in a sustained manner |
| CC12CC3CC(C)(C1)CC(N)(C3)C2 [memantine] |  |  |  | effect on behavioral and psychological symptoms of dementia [7]: partially improves behavioral and psychological symptoms of dementia |
